Assay results reported in patent publication US20250115571A1, “OXOPIPERAZINE DERIVATIVES” (Inthera Bioscience AG, priority 2017, published 2025).

Assays:
SK-MEL5 = assay: 5-day cell proliferation assay (CTG); assay type: cell-based; details: Homo sapiens, SK-MEL-5, 120 h, SK-MEL5, Skin
Description: (§1) For screening using a proliferation assay, the cells used were cultured at 37° C. with 5% CO2, except for those being cultured with L-15 medium (37° C. and 100% air, TABLE 7). Compound stock solutions (10 mM) were made in sterile water, aliquoted and stored at room temperature. Cisplatin was used as reference Control. Plastic consumables, culture media and supplements were purchased from well-known suppliers (TABLE 8).
(§2) Cell seeding (day −1). When necessary, cells were trypsinized using standard methods (see e.g. example 01). Cells were collected and resuspended in 5-6 mL of appropriate culture medium, counted and diluted to the needed density. Fifty-four μl (microliter) cells were seeded per well in a 384-well plate. Extra four wells per cell line were seeded on an additional plate for Day 0 reading (baseline cell density). Cells were incubated at 37° C. overnight.
(§3) Compound treatment and Day 0 reading (day 0). Tenfold final concentration of test compounds and Cisplatin were prepared in cell culture media (work dilutions). Six μl of work dilution solutions were dispensed into the corresponding wells in 384-well plates to bring the total volume up to 60 μl. Conditions were tested in triplicate. The plates were then incubated at 37° C. for five days. For the day 0 reading, 30 μl of CTG and 6 μl cell culture medium were added to the day 0 plates, contents mixed for 2 min on a plate shaker, and the plates incubated for 10 min at room temperature in the dark. Luminescence was recorded on an EnVision Multi Label Reader (2104-0010A, PerkinElmer, USA).
(§4) Endpoint CTG reading (day 5). The amounts of cells in the plates was determined by endpoint CTG-test. Thirty μl of CTG were added to the 60 μl of cell culture per well, contents mixed for 2 min on a plate shaker, and the plates incubated for 10 min at room temperature in the dark. Luminescence was recorded on an EnVision Multi Label Reader.
(§5) Data analysis. Fifty percent growth inhibition concentrations (GI50) were calculated based on percentage of control data (untreated cells) from each cell line (TABLE 5 (this example) and TABLE 6). Curves were fitted using a nonlinear regression model with a sigmoidal dose response. Examples of obtained curves are depicted in FIG. 2A-2F.

DoTc2 4510 = assay: 5-day cell proliferation assay (CTG); assay type: cell-based; details: Homo sapiens, 120 h, DoTc2 4510, Cervix
Description: as §1, §2, §3, §4, §5

LNCaP-FGC = assay: 5-day cell proliferation assay (CTG); assay type: cell-based; details: Homo sapiens, 120 h, Prostate
Description: as §1, §2, §3, §4, §5

OVCAR-3 = assay: 5-day cell proliferation assay (CTG); assay type: cell-based; details: Homo sapiens, 120 h, OVCAR-3, Ovary
Description: as §1, §2, §3, §4, §5

22RV1 = assay: 5-day cell proliferation assay (CTG); assay type: cell-based; details: Homo sapiens, 120 h, 22RV1, Prostate
Description: as §1, §2, §3, §4, §5

786-O = assay: 5-day cell proliferation assay (CTG); assay type: cell-based; details: Homo sapiens, 786-0, 120 h, Kidney
Description: as §1, §2, §3, §4, §5

Ramos = assay: 5-day cell proliferation assay (CTG); assay type: cell-based; details: Homo sapiens, 120 h, Lymphoma
Description: as §1, §2, §3, §4, §5

[1] = test system: Vascular Endothelial Growth Factor A (VEGF); assay: Tumor VEGF protein (ELISA) in HCT-116 colorectal cancer cell-derived xenograft; assay type: in vivo, mouse; details: HCT-116 xenograft, approximately 4 weeks of treatment with 3 mg/kg or 6 mg/kg
Description: (§6) Mice from groups 1, 2, 4 and 5 of the HCT-116 colorectal cancer model (TABLE 12, EXAMPLE 324) and MKN45 gastric cancer model (TABLE 14, EXAMPLE 325) were used to analyze tumor Vascular Endothelial Growth Factor A (VEGF) protein expression at the end of the experiment. Tumors homogenates were prepared using a 2× Lysis Buffer (RayBiotech Life, Norcross, GA, USA) according to manufacturer's instructions. VEGF was quantified in 50 micrograms tumor by ELISA (Human VEGF Quantikine ELISA Kit, R&D Systems) according to manufacturer's instructions.

[2] = test system: SiHa human HPV16-positive cervical cancer cells; assay: Cell-derived xenograft mouse model for cervical cancer (SiHa CDX); assay type: in vivo; details: for Tumor Size day 37: SiHa CDX, female BALB/c nude mice, Mean ± SEM; for T/C: day 37, tumor-to-control ratio (volume/volume)
Description: Female BALB/c nude mice (7-9 weeks of age) were injected with SiHa human HPV16-positive (Human Papillomavirus type 16) cervical cancer cells. The cells were inoculated subcutaneously into the left flank of 48 mice. When tumors reached a mean volume of approximately 111 mm^3, mice were randomly assigned to eight treatment groups of each six mice (TABLE 18). Body weights were measured three times weekly prior to the initiation of dosing and daily thereafter. Tumor burden was assessed by caliper measurement twice weekly. Dosing breaks were applied when tolerability issues arose (body weight loss>10%). The study was terminated four weeks post first dosing. The experiment was performed in the Crown Bioscience Ltd. (Beijing) testing facility (Ground Floor, Light Muller Building, Changping Sector of Zhongguancun Scientific Park, No. 21 Huoju Road, Changping District, Beijing, CHIN).

CT-26 cells = assay: Cell-derived syngeneic mouse model for colorectal carcinoma combined with anti-PD1 antibodies; assay type: in vivo; details: ten mice per group
Description: The cells were inoculated subcutaneously into the left flank of 60 mice. […] Body weights were measured daily until treatment start, then twice weekly. Tumor burden was assessed twice weekly by caliper measurement. The study was terminated four weeks post first dosing.

[3] = test system: Vascular Endothelial Growth Factor A (VEGF); assay: Tumor VEGF protein (ELISA) in MKN45 gastric cancer cell-derived xenograft; assay type: in vivo, mouse; details: approximately 3 weeks of treatment with 3 mg/kg or 6 mg/kg, effect less evident than in HCT-116
Description: as §6

[4] = 1 mg/kg, BID, p.o., listed as Compound 258
[5] = 3 mg/kg, BID/QD (p.o. BID, QD from treatment day 7 on)

SMILES: CC(C)C[C@@H]1NCCN([C@@H](CC(C)C)C(=O)N2CCC3(C[C@@H]2C)OCC(CN2CCCC2)CO3)C1=O (stereo partly drawn) [Compound 258, (3S)-1-[(2S)-4-methyl-1-oxo-1-[(3s,6s,8S)-8-methyl-3-(pyrrolidin-1-ylmethyl)-1,5-dioxa-9-azaspiro[5.5]undec-an-9-yl]pentan-2-yl]-3-(2-methylpropyl)piper-azin-2-one (^≠), isomer Z]
- GI50 (SK-MEL5): 51 nM
- GI50 (DoTc2 4510): 14 nM
- GI50 (LNCaP-FGC): 2 nM
- GI50 (OVCAR-3): 44 nM
- GI50 (22RV1): 9 nM
- GI50 (786-O): 28 nM
- GI50 (Ramos): 27 nM
- tumor VEGF protein levels [1]: significantly reduced
- Tumor Size day 37 [2, 4]: 296 ± 27 mm^3
- T/C [2, 4]: 31.6%
- Tumor Size day 37 [2, 5]: 104 ± 30 mm^3
- T/C [2, 5]: 11.1%
- mice alive (CT-26 cells; day 21, 1 mg/kg p.o. QD + Anti-PD1 10 mg/kg i.p. BIW): 10
- mice alive (CT-26 cells; day 21, 1 mg/kg p.o. QD alone): 10
- mice alive (CT-26 cells; day 21, 3 mg/kg p.o. QD + Anti-PD1 10 mg/kg i.p. BIW): 10
- mice alive (CT-26 cells; day 21, 3 mg/kg p.o. QD alone): 10
- mice alive (CT-26 cells; day 23, 1 mg/kg p.o. QD + Anti-PD1 10 mg/kg i.p. BIW): 10
- mice alive (CT-26 cells; day 23, 1 mg/kg p.o. QD alone): 10
- mice alive (CT-26 cells; day 23, 3 mg/kg p.o. QD + Anti-PD1 10 mg/kg i.p. BIW): 10
- mice alive (CT-26 cells; day 23, 3 mg/kg p.o. QD alone): 8
- mice alive (CT-26 cells; day 25, 1 mg/kg p.o. QD + Anti-PD1 10 mg/kg i.p. BIW): 10
- mice alive (CT-26 cells; day 25, 1 mg/kg p.o. QD alone): 5
- mice alive (CT-26 cells; day 25, 3 mg/kg p.o. QD + Anti-PD1 10 mg/kg i.p. BIW): 10
- mice alive (CT-26 cells; day 25, 3 mg/kg p.o. QD alone): 6
- mice alive (CT-26 cells; day 28, 1 mg/kg p.o. QD + Anti-PD1 10 mg/kg i.p. BIW): 7
- mice alive (CT-26 cells; day 28, 1 mg/kg p.o. QD alone): 2
- mice alive (CT-26 cells; day 28, 3 mg/kg p.o. QD + Anti-PD1 10 mg/kg i.p. BIW): 9
- mice alive (CT-26 cells; day 28, 3 mg/kg p.o. QD alone): 2
- mice alive (CT-26 cells; day 30, 1 mg/kg p.o. QD + Anti-PD1 10 mg/kg i.p. BIW): 6
- mice alive (CT-26 cells; day 30, 1 mg/kg p.o. QD alone): 1
- mice alive (CT-26 cells; day 30, 3 mg/kg p.o. QD + Anti-PD1 10 mg/kg i.p. BIW): 8
- mice alive (CT-26 cells; day 30, 3 mg/kg p.o. QD alone): 0
- mice alive (CT-26 cells; day 32, 1 mg/kg p.o. QD + Anti-PD1 10 mg/kg i.p. BIW): 4
- mice alive (CT-26 cells; day 32, 1 mg/kg p.o. QD alone): 0
- mice alive (CT-26 cells; day 32, 3 mg/kg p.o. QD + Anti-PD1 10 mg/kg i.p. BIW): 4
- mice alive (CT-26 cells; day 32, 3 mg/kg p.o. QD alone): 0
- mice alive (CT-26 cells; day 34, 1 mg/kg p.o. QD + Anti-PD1 10 mg/kg i.p. BIW): 4
- mice alive (CT-26 cells; day 34, 1 mg/kg p.o. QD alone): 0
- mice alive (CT-26 cells; day 34, 3 mg/kg p.o. QD + Anti-PD1 10 mg/kg i.p. BIW): 4
- mice alive (CT-26 cells; day 34, 3 mg/kg p.o. QD alone): 0
- mice alive (CT-26 cells; day 36, 1 mg/kg p.o. QD + Anti-PD1 10 mg/kg i.p. BIW): 4(*)
- mice alive (CT-26 cells; day 36, 1 mg/kg p.o. QD alone): 0
- mice alive (CT-26 cells; day 36, 3 mg/kg p.o. QD + Anti-PD1 10 mg/kg i.p. BIW): 4(*)
- mice alive (CT-26 cells; day 36, 3 mg/kg p.o. QD alone): 0
- tumor VEGF protein levels [3]: significantly reduced
